pKi: −log10 of the molar value. Counter-ions that a name gives are not always drawn.
Target: α7 nAChR (Rattus norvegicus, UniProt Q05941)
Assay: [3H]-MLA competition binding assay, rat brain membranes
Conditions: Ki, inhibition of [3H]-MLA binding (3.0 to 4.0 nM), Sprague-Dawley rat whole brain minus cerebellum homogenate, 1 hour at 25° C
Experimental: Membrane Preparation. Male Sprague-Dawley rats (300-350 g) are sacrificed by decapitation and the brains (whole brain minus cerebellum) are dissected quickly, weighed and homogenized in 9 volumes/g wet weight of ice-cold 0.32 M sucrose using a rotating pestle on setting 50 (10 up and down strokes). The homogenate is centrifuged at 1,000×g for 10 minutes at 4° C. The supernatant is collected and centrifuged at 20,000×g for 20 minutes at 4° C. The resulting pellet is resuspended to a protein concentration of 1-8 mg/mL. Aliquots of 5 mL homogenate are frozen at −80° C. until needed for the assay.
Binding Assay. […] Filters are pre-soaked in 50 mm Tris HCl pH 7.0-0.05% polyethylenimine. The filters are rapidly washed two times with 5 mL aliquots of cold 0.9% saline and then counted for radioactivity by liquid
Data Analysis. […] Hill coefficients were obtained using non-linear regression (GraphPad Prism sigmoidal dose-response with variable slope).

Sequence of α7 nAChR (Q05941 23-502): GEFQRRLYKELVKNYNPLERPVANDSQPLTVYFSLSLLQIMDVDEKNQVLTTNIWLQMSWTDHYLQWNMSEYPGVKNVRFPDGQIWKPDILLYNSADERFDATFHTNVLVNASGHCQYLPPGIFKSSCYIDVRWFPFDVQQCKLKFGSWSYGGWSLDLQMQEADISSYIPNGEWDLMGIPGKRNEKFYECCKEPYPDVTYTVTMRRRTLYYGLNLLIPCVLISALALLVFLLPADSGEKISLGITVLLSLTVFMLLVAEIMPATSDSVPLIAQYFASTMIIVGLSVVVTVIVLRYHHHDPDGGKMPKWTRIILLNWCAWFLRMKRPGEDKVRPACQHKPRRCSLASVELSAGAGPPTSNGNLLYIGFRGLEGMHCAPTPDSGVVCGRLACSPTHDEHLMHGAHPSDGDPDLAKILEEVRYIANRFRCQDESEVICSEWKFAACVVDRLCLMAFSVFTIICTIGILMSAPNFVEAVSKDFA

For O=C(N[C@H]1CN2CCC1CC2)c1ccc(-c2cc3ccccc3s2)o1 [Example 141, N-[(3R)-1-azabicyclo[2.2.2]oct-3-yl]-5-(1-benzothien-2-yl)-furan-2-carboxamide 4-methylbenzenesulfonate], the pKi was 6.56 to 6.59.
COc1ccccc1-c1ccc(C(=O)N[C@H]2CN3CCC2CC3)o1 [Example 118, N-[(3R)-1-azabicyclo[2.2.2]oct-3-yl]-5-(2-methoxyphenyl)-furan-2-carboxamide 4-methylbenzenesulfonate] was tested, and the pKi was 7.16 to 7.35.
O=C(N[C@H]1CN2CCC1CC2)c1cnc(-c2ccccc2F)s1 [Example 52, N-[(3R)-1-Azabicyclo[2.2.2]oct-3-yl]-2-(2-fluorophenyl)-1,3-thiazole-5-carboxamide Citrate] showed a pKi of 6.32 to 6.47.
COc1ccc(-c2cnc(C(=O)N[C@H]3CN4CCC3CC4)o2)cc1 [Example 82, N-[(3R)-1-azabicyclo[2.2.2]oct-3-yl]-5-(4-methoxyphenyl)-1,3-oxazole-2-carboxamide 4-methylbenzenesulfonate] gave a pKi of 6.90 to 6.94.
For O=C(N[C@H]1CN2CCC1CC2)c1ncc(-c2cccc(Cl)c2)s1 [Example 99, N-[(3R)-1-azabicyclo[2.2.2]oct-3-yl]-5-(3-chlorophenyl)-1,3-thiazole-2-carboxamide 4-methylbenzenesulfonate], the pKi was 6.49 to 6.51.
Molecule CC(C)(C)c1ccc(-c2ccc(C(=O)N[C@H]3CN4CCC3CC4)o2)cc1 [Example 140, N-[(3R)-1-azabicyclo[2.2.2]oct-3-yl]-5-(4-tert-butylphenyl)-furan-2-carboxamide 4-methylbenzenesulfonate] has a pKi of 7.19 to 7.46.
Cc1cccc(-c2ccc(C(=O)N[C@H]3CN4CCC3CC4)o2)c1 [Example 136, N-[(3R)-1-azabicyclo[2.2.2]oct-3-yl]-5-(3-methylphenyl)-furan-2-carboxamide 4-methylbenzenesulfonate] was tested, and the pKi was 7.70 to 7.82.
Work on O=C(N[C@H]1CN2CCC1CC2)c1ccc(-c2ccccc2Cl)s1 [Example 4, N-[(3R)-1-azabicyclo[2.2.2]oct-3-yl]-5-(2-chlorophenyl)-thiophene-2-carboxamide hydrochloride] yielded a pKi of 7.14 to 7.22.
Molecule O=C(N[C@H]1CN2CCC1CC2)c1cnc(-c2cccc(F)c2)s1 [Example 53, N-[(3R)-1-azabicyclo[2.2.2]oct-3-yl]-2-(3-fluorophenyl)-1,3-thiazole-5-carboxamide 4-methylbenzenesulfonate] has a pKi of 5.71 to 5.72.
Work on O=C(N[C@H]1CN2CCC1CC2)c1ccc(-c2ccccn2)s1 [Example 20, N-[(3R)-1-Azabicyclo[2.2.2]oct-3-yl]-5-(pyridin-2-yl)-thiophene-2-carboxamide] yielded a pKi of 8.30 to 8.52.
For N#Cc1cccc(-c2cnc(C(=O)N[C@H]3CN4CCC3CC4)o2)c1 [Example 87, N-[(3R)-1-azabicyclo[2.2.2]oct-3-yl]-5-(3-cyanophenyl)-1,3-oxazole-2-carboxamide 4-methylbenzenesulfonate], the pKi was 6.82 to 6.89.
O=C(N[C@H]1CN2CCC1CC2)c1ccc(-c2ccc(O)c(F)c2)s1 [Example 43, N-[(3R)-1-Azabicyclo[2.2.2]oct-3-yl]-5-(3-fluoro-4-hydroxyphenyl)-thiophene-2-carboxamide Hydrochloride] showed a pKi of 8.30 to 8.52.
O=C(N[C@H]1CN2CCC1CC2)c1ccc([N+](=O)[O-])s1 [Example 16, N-[(3R)-1-Azabicyclo[2.2.2]oct-3-yl]-5-nitro-thiophene-2-carboxamide Hydrochloride] was tested, and the pKi was 8.10 to 8.52.
O=C(N[C@H]1CN2CCC1CC2)c1ncc(-c2cccc([N+](=O)[O-])c2)o1 [Example 81, N-[(3R)-1-azabicyclo[2.2.2]oct-3-yl]-5-(3-nitrophenyl)-1,3-oxazole carboxamide 4-methylbenzenesulfonate] was tested, and the pKi was 6.76 to 7.26.
With O=C(N[C@H]1CN2CCC1CC2)c1ccc(-c2cc(F)ccc2F)o1 [Example 117, N-[(3R)-1-azabicyclo[2.2.2]oct-3-yl]-5-(2,5-difluorophenyl)-furan-2-carboxamide hydrochloride] the pKi was 5.73.
For O=C(N[C@H]1CN2CCC1CC2)c1nc(-c2ccccc2)no1 [Example 154, N-[(3R)-1-azabicyclo[2.2.2]oct-3-yl]-3-phenyl-1,2,4-oxadiazole-5-carboxamide 4-methylbenzenesulfonate], the pKi was < 6.00.
Cc1nc(C(=O)N[C@H]2CN3CCC2CC3)sc1-c1ccccc1 [Example 89, N-[(3R)-1-Azabicyclo[2.2.2]oct-3-yl]-4-methyl-5-phenyl-1,3-thiazole-2-carboxamide 4-Methylbenzenesulfonate] gave a pKi of 6.40 to 6.51.
For O=C(N[C@H]1CN2CCC1CC2)c1ccc(Cl)s1 [Example 23, N-[(3R)-1-azabicyclo[2.2.2]oct-3-yl]-5-chloro-thiophene-2-carboxamide], the pKi was 8.00 to 8.22.
COc1cccc(-c2ccc(C(=O)N[C@H]3CN4CCC3CC4)o2)c1 [Example 119, N-[(3R)-1-azabicyclo[2.2.2]oct-3-yl]-5-(3-methoxyphenyl)-furan-2-carboxamide 4-methylbenzenesulfonate] showed a pKi of 6.25 to 6.38.
Work on O=C(N[C@H]1CN2CCC1CC2)c1cc(-c2ccccc2)cs1 [Example 8, N-[(3R)-1-azabicyclo[2.2.2]oct-3-yl]4-phenyl-thiophene-2-carboxamide hydrochloride] yielded a pKi of 7.34.
For Cn1c(C(=O)N[C@H]2CN3CCC2CC3)ccc1-c1ccccc1 [Example 152, N-[(3R)-1-Azabicyclo[2.2.2]oct-3-yl]-1-methyl-5-phenyl-1H-pyrrole-2-carboxamide], the pKi was 7.19 to 7.70.
O=C(N[C@H]1CN2CCC1CC2)c1ccc(Oc2ccccc2)s1 [Example 40, N-[(3R)-1-Azabicyclo[2.2.2]oct-3-yl]-5-phenoxy-thiophene-2-carboxamide Hydrochloride] showed a pKi of 7.80 to 7.92.
O=C(N[C@H]1CN2CCC1CC2)c1ncc(-c2ccccc2)s1 [Example 90, N-[(3R)-1-azabicyclo[2.2.2]oct-3-yl]-5-phenyl-1,3-thiazole-2-carboxamide] was tested, and the pKi was 6.82 to 7.10.
With O=C(N[C@H]1CN2CCC1CC2)c1ccc(-c2cc(F)cc(F)c2)o1 [Example 133, N-[(3R)-1-azabicyclo[2.2.2]oct-3-yl]-5-(3,5-difluorophenyl)-furan-2-carboxamide hydrochloride] the pKi was 7.15 to 7.52.
O=C(N[C@H]1CN2CCC1CC2)c1ccc(-c2cccc(F)c2)o1 [Example 114, N-[(3R)-1-azabicyclo[2.2.2]oct-3-yl]-5-(3-fluorophenyl)-furan-2-carboxamide 4-methylbenzenesulfonate] was tested, and the pKi was 6.87.
With COc1cccc(-c2cnc(C(=O)N[C@H]3CN4CCC3CC4)o2)c1 [Example 80, N-[(3R)-1-azabicyclo[2.2.2]oct-3-yl]-5-(3-methoxyphenyl)-1,3-oxazole-2-carboxamide 4-methylbenzenesulfonate] the pKi was 7.22 to 7.30.
Molecule CC1C(NC(=O)c2ccc(Br)s2)C2CCN1CC2 (mixture of isomers) [Example 158, 5-Bromo-N-(2-methyl-1-azabicyclo[2.2.2]oct-3-yl)thiophene-2-carboxamide 4-Methylbenzenesulfonate] has a pKi of 7.70 to 7.92.
Molecule Cc1ccc(C(=O)N[C@H]2CN3CCC2CC3)s1 [Example 25, N-[(3R)-1-azabicyclo[2.2.2]oct-3-yl]-5-methyl-thiophene-2-carboxamide] has a pKi of 7.82 to 8.00.
Nc1ccccc1-c1ccc(C(=O)N[C@H]2CN3CCC2CC3)o1 [Example 147, 5-(2-Aminophenyl)-N-[(3R)-1-azabicyclo[2.2.2]oct-3-yl]-furan-2-carboxamide bis(4-Methylbenzenesulfonate)] gave a pKi of 8.52 to 8.70.
N#Cc1ccc(C(=O)N[C@H]2CN3CCC2CC3)s1 [Example 18, N-[(3R)-1-Azabicyclo[2.2.2]oct-3-yl]-5-cyano-thiophene-2-carboxamide Hydrochloride] showed a pKi of 6.54 to 6.62.
For O=C(N[C@H]1CN2CCC1CC2)c1ncc(-c2ccc(Br)cc2)o1 [Example 88, N-[(3R)-1-azabicyclo[2.2.2]oct-3-yl]-5-(4-bromophenyl)-1,3-oxazole-2-carboxamide 4-methylbenzenesulfonate], the pKi was 7.10 to 7.19.
O=C(N[C@H]1CN2CCC1CC2)c1ccc(-c2ccc(Cl)cc2)s1 [Example 2, N-[(3R)-1-azabicyclo[2.2.2]oct-3-yl]-5-(4-clorophenyl)-thiophene-2-carboxamide hydrochloride] showed a pKi of 6.96.
Molecule O=C(N[C@H]1CN2CCC1CC2)c1ccc(Sc2ccc(F)cc2F)s1 [Example 34, N-[(3R)-1-azabicyclo[2.2.2]oct-3-yl]-5-(2,4-difluorophenyl-sulfanyl)-thiophene-2-carboxamide hydrochloride] has a pKi of 7.41 to 7.52.
For Cc1ccccc1-c1ccc(C(=O)N[C@H]2CN3CCC2CC3)o1 [Example 135, N-[(3R)-1-azabicyclo[2.2.2]oct-3-yl]-5-(2-methylphenyl)-furan-2-carboxamide 4-methylbenzenesulfonate], the pKi was 7.35 to 7.80.
For O=C(N[C@H]1CN2CCC1CC2)c1ncc(-c2ccccc2)o1 [Example 153, N-[(3R)-1-azabicyclo[2.2.2]oct-3-yl]-5-phenyl-1,3-oxazole-2-carboxamide 4-methylbenzenesulfonate], the pKi was 5.81.
With CSc1ccc(C(=O)N[C@H]2CN3CCC2CC3)s1 [Example 22, N-[(3R)-1-Azabicyclo[2.2.2]oct-3-yl]-5-(methylsulfanyl)-thiophene-2-carboxamide] the pKi was 8.22 to 9.00.
In the case of O=C(N[C@H]1CN2CCC1CC2)c1ccc(-c2ccccc2)s1 [Example 1, N-[(3R)-1-Azabicyclo[2.2.2]oct-3-yl]-5-phenyl-thiophene-2-carboxamide Hydrochloride], the pKi was 7.48 to 7.89.
With Nc1ccccc1-c1ccc(C(=O)N[C@H]2CN3CCC2CC3)s1 [Example 12, 5-(2-Aminophenyl)-N-[(3R)-1-azabicyclo[2.2.2]oct-3-yl]-thiophene-2-carboxamide] the pKi was 7.12 to 7.35.
Molecule O=C(N[C@H]1CN2CCC1CC2)c1cnc(-c2ccccc2O)s1 [Example 55, N-[(3R)-1-azabicyclo[2.2.2]oct-3-yl]-2-(2-hydroxyphenyl)-1,3-thiazole-5-carboxamide hydrochloride] has a pKi of 7.15 to 7.22.
Work on Cc1cnc(C(=O)N[C@H]2CN3CCC2CC3)s1 [Example 98, N-[(3R)-1-azabicyclo[2.2.2]oct-3-yl]-5-methyl-1,3-thiazole-2-carboxamide 4-methylbenzenesulfonate] yielded a pKi of 7.10 to 7.30.

— US6500840B2, “Quinuclidine-substituted heteroaryl moieties for treatment of disease” (Pharmacia & Upjohn Company, priority 2000, dated 2002)
